{
  "source": "paper PMC3596113",
  "about": "(Clinical cancer research : an official journal of the …, 2012)",
  "key": {"[1]": {"system": "phosphorylation of histone H2Ax in leukemia blast cells", "test": "H2Ax phosphorylation in marrow blasts", "type": "in vivo, human"}, "[2]": {"system": "relapsed and refractory acute leukemias"}, "CDK1": {"system": "CDK1", "details": "cited from earlier work"}, "Chk2": {"system": "Chk2", "details": "cited from earlier work"}, "[3]": {"details": "AML patient 49, dose level 1, Ref"}, "[4]": {"details": "AML patient 73, dose level 5, Relapse 66 mo"}, "[5]": {"details": "Total, 24 adults, all dose levels"}, "[6]": {"details": "dose level 1, 10 mg/m^2 (n = 3) + cytarabine"}, "[7]": {"details": "dose level 2, 20 mg/m^2 (n = 3) + cytarabine"}, "[8]": {"details": "dose level 4, 56 mg/m^2 (n = 6) + cytarabine"}, "[9]": {"details": "dose level 5, 140 mg (n = 6) + cytarabine"}},
  "note": "Read-outs that look alike come from different tables or passages of the source. Marks after values point to notes of the source that are not given here.",
  "data": [
    {"compound": "Nc1ccn([C@@H]2O[C@H](CO)[C@@H](O)[C@@H]2O)c(=O)n1", "note": "[cytarabine, reference compound]", "values": [
      {"measurement": "Samples with increase in H2Ax phosphorylation", "setting": "[1]; marrow blasts, after 24 hours of continuous cytarabine infusion, before SCH 900776 (day 2)", "value": "2 of 10"}
    ]},
    {"compound": "Cn1cc(-c2cnn3c(N)c(Br)c([C@@H]4CCCNC4)nc23)cn1", "note": "[SCH 900776]", "values": [
      {"measurement": "Response rate (CR plus CRi)", "setting": "[2]; 1 CRi of 6 patients at SCH 900776 doses ≤ 20 mg/m^2", "value": 17, "unit": "%"},
      {"measurement": "CR/CRi rate", "setting": "[2]; 2 of 10 patients with AML with adverse cytogenetics", "value": 20, "unit": "%"},
      {"measurement": "CR/CRi rate", "setting": "[2]; 2 of 10 patients with a complex karyotype", "value": 20, "unit": "%"},
      {"measurement": "CR/CRi rate", "setting": "[2]; 3 of 8 with secondary AML", "value": 38, "unit": "%"},
      {"measurement": "CR/CRi rate", "setting": "[2]; 4/8 with relapsed AML", "value": 50, "unit": "%"},
      {"measurement": "Response rate (CR plus CRi)", "setting": "[2]; 7 (5 CR, 2 CRi) of 18 patients at dose level 3 (40 mg/m^2) or higher", "value": 39, "unit": "%"},
      {"measurement": "CR/CRi rate in patients with AML", "setting": "[2]; 8 of 21 patients with AML", "value": 38, "unit": "%"},
      {"measurement": "Overall response rate (CR plus CRi)", "setting": "[2]; 8 of 24 patients, all dose levels", "value": 33, "unit": "%"},
      {"measurement": "Complete tumor clearance (CTC) by day 14, rate", "setting": "[2]; 12 of 24 patients, all dose levels", "value": 50, "unit": "%"},
      {"measurement": "DFS (mo)", "setting": "[2]; AML patient 25, dose level 3, Relapse 7 mo", "value": "25.2+ mo"},
      {"measurement": "DFS (mo)", "setting": "[2]; [3]", "value": 2.0, "unit": "mo"},
      {"measurement": "Response (CR/CRi)", "setting": "[2]; [3]", "value": "CRi"},
      {"measurement": "DFS (mo)", "setting": "[2]; AML patient 52, dose level 3, primary Ref", "value": 2.2, "unit": "mo"},
      {"measurement": "DFS (mo)", "setting": "[2]; AML patient 55, dose level 3, primary Ref", "value": 11.3, "unit": "mo"},
      {"measurement": "DFS (mo)", "setting": "[2]; AML patient 60, dose level 4, Relapse 8 mo", "value": "22.4+ mo"},
      {"measurement": "DFS (mo)", "setting": "[2]; AML patient 61, dose level 5, Relapse 19 mo", "value": "18.1+ mo"},
      {"measurement": "DFS (mo)", "setting": "[2]; AML patient 70, dose level 4, primary Ref", "value": 9.7, "unit": "mo"},
      {"measurement": "DFS (mo)", "setting": "[2]; [4]", "value": 0.2, "unit": "mo"},
      {"measurement": "Response (CR/CRi)", "setting": "[2]; [4]", "value": "CRi"},
      {"measurement": "Day 14 CTC (patients)", "setting": "[2]; [5]", "value": 12},
      {"measurement": "Response (CR/CRi) (patients)", "setting": "[2]; [5]", "value": "8 (5/3): all AML"},
      {"measurement": "Response in pts with prior cytarabine", "setting": "[2]; Total, 24 adults, high = prior 2 g/m^2/72 h infusion or high-dose cytarabine", "value": "7 (6 high)"},
      {"measurement": "Median duration of response", "setting": "[2]; all patients with CR/CRi, range 0.2–27+", "value": 10, "unit": "months"},
      {"measurement": "Responders remaining alive", "setting": "[2]; as of June 1, 2012, at 19+ to 30.5+ months", "value": "5 of the 8"},
      {"measurement": "Response rate (CR plus CRi)", "setting": "[2]; at least 2 of 6 in each of dose levels 3 through 5", "value": "≥ 33", "unit": "%"},
      {"measurement": "Complete tumor clearance (CTC) by day 14, rate", "setting": "[2]; at least 3 of 6 per level beginning at dose level 3 (40 mg/m^2)", "value": "≥ 50", "unit": "%"},
      {"measurement": "Day 14 CTC (patients)", "setting": "[2]; [6]", "value": 1},
      {"measurement": "Response (CR/CRi) (patients)", "setting": "[2]; [6]", "value": "1 (0/1): AML"},
      {"measurement": "Response in pts with prior cytarabine", "setting": "[2]; dose level 1, 10 mg/m^2 (n = 3), high = prior 2 g/m^2/72 h infusion or high-dose cytarabine", "value": "1 (high) ^a"},
      {"measurement": "Response in pts with prior cytarabine", "setting": "[2]; dose level 2, 20 mg/m^2 (n = 3)", "value": 0},
      {"measurement": "Day 14 CTC (patients)", "setting": "[2]; [7]", "value": 1},
      {"measurement": "Response (CR/CRi) (patients)", "setting": "[2]; [7]", "value": "0 (0/0)"},
      {"measurement": "Day 14 CTC (patients)", "setting": "[2]; dose level 3, 40 mg/m^2 (n = 6) + cytarabine", "value": 4},
      {"measurement": "Response in pts with prior cytarabine", "setting": "[2]; dose level 3, 40 mg/m^2 (n = 6), high = prior 2 g/m^2/72 h infusion or high-dose cytarabine", "value": "2 (both high)"},
      {"measurement": "Day 14 CTC (patients)", "setting": "[2]; [8]", "value": 3},
      {"measurement": "Response (CR/CRi) (patients)", "setting": "[2]; [8]", "value": "2 (2/0): both AML"},
      {"measurement": "Response in pts with prior cytarabine", "setting": "[2]; dose level 4, 56 mg/m^2 (n = 6), high = prior 2 g/m^2/72 h infusion or high-dose cytarabine", "value": "2 (1 high)"},
      {"measurement": "Day 14 CTC (patients)", "setting": "[2]; [9]", "value": 3},
      {"measurement": "Response (CR/CRi) (patients)", "setting": "[2]; [9]", "value": "2 (1/1): both AML"},
      {"measurement": "Response in pts with prior cytarabine", "setting": "[2]; dose level 5, 140 mg (n = 6), high = prior 2 g/m^2/72 h infusion or high-dose cytarabine", "value": "2 (both high)"},
      {"measurement": "CR/CRi in patients who had day 14 CTC", "setting": "[2]; human, in vivo", "value": "8 of the 12"},
      {"measurement": "CR/CRi in patients who had residual leukemia on day 14", "setting": "[2]; human, in vivo", "value": "none"},
      {"measurement": "CR/CRi", "setting": "[2]; patients with FLT3-ITD AML", "value": "none"},
      {"measurement": "Sets of samples with enhanced H2Ax phosphorylation", "setting": "[1]; patients treated with 40 mg/m^2 SCH 900776 or higher", "value": "3 of 5"},
      {"measurement": "Effect on CDK1", "setting": "CDK1", "value": "without substantial effect"},
      {"measurement": "Effect on Chk2", "setting": "Chk2", "value": "without substantial effect"}
    ]}
  ]
}
